Assay results reported in BindingDB's records for doi:10.3109/14756366.2011.629198 (Dumlupinar University, 2012).
Where a name gives a salt, the structure may show the parent alone.

Columns and labels:
Test in all cases: CA Inhibition Assay
Details in all cases: pH 7.4
Carbonic anhydrase 2 = Carbonic anhydrase 2 (Homo sapiens, UniProt P00918)
Carbonic anhydrase 6 = Carbonic anhydrase 6 (Homo sapiens, UniProt P23280)
Carbonic anhydrase 1 = Carbonic anhydrase 1 (Homo sapiens, UniProt P00915)
Carbonic anhydrase 4 = Carbonic anhydrase 4 (Homo sapiens, UniProt P22748)
Carbonic anhydrase 4, sequence (P22748 whole entry): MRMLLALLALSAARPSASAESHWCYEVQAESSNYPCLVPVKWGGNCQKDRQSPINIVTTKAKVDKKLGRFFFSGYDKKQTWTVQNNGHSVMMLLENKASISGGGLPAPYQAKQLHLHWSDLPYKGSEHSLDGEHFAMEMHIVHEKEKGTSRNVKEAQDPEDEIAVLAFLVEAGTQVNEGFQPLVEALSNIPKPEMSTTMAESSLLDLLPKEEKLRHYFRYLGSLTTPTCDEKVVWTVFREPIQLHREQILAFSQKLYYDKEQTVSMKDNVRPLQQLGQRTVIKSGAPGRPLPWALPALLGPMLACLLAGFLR

Carbonic anhydrase 1, sequence (P00915 whole entry): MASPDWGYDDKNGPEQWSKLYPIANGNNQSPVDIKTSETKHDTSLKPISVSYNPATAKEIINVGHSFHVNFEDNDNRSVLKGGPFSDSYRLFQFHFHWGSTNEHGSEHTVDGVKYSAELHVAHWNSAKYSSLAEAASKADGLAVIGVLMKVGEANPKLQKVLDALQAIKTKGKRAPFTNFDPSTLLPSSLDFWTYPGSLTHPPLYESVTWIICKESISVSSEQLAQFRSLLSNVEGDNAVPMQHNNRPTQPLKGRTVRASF
Carbonic anhydrase 6, sequence (P23280 whole entry): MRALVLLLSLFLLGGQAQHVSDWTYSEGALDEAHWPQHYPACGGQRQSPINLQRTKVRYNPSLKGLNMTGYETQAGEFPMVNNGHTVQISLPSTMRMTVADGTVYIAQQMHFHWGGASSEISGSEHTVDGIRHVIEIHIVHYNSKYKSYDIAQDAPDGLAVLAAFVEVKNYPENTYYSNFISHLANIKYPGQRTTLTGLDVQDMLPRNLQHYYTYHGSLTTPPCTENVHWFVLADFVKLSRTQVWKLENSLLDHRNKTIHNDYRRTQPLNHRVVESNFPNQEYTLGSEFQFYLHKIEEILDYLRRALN

Ki (Carbonic anhydrase 2)	Ki (Carbonic anhydrase 6)	Ki (Carbonic anhydrase 1)	Ki (Carbonic anhydrase 4)	SMILES
23.7 µM	278 µM	142 µM	234 µM	O[C@@H]1C2C[C@H](O)C1c1ccccc12 (stereo partly drawn) [9(R(S))-Hydroxy-1,2,3,4-tetrahydro-1,4-methanonaphthalen-2(R(S))-diol (9)]
10.4 µM	221 µM	32.7 µM	199 µM	O=S(=O)(O)O[C@H]1CC2c3ccccc3C1[C@@H]2O (stereo partly drawn) [9(R(S))-Hydroxy-1,2,3,4-tetrahydro-1,4-methanonaphthalen-2(R(S))-yl sulfate (8)]
4.68 µM	76.2 µM	135 µM	18.8 µM	O[C@@H]1CCCC[C@H]1O [(1R,2R)-trans-1,2-cyclohexanediol]
2.13 µM	93.1 µM	41.3 µM	13.7 µM	O=S(=O)(O)O[C@@H]1CC=CC[C@H]1O [trans-(1R(S),6R(S))-6-Hydroxycyclohex-3-enyl hydrogen sulfate (4)]
5.41 µM	123 µM	77.2 µM	16.3 µM	O=S(=O)(O)O[C@@H]1CC/C=C\CC[C@H]1O [trans-(1R(S),8R(S),Z)-8-Hydroxycyclooct-4-enyl hydrogen sulfate (6)]
32.4 µM	127 µM	423 µM	77.9 µM	O[C@@H]1Cc2ccccc2C[C@H]1O [trans-(2R(S),3R(S))-1,2,3,4-Tetrahydronaphthalene-2,3-diol (11)]
